Measured values as given in patent US6169065A, “Method for the activity of an enzyme” (Lever Brothers Company division of Conopco Company, priority 1997, dated 2001).

What was measured:
Type in all cases: biochemical
[1] = target: T1, Arthromyces ramosus peroxidase (Arthromyces ramosus, UniProt P28313); test: Oxidation (bleaching) of Direct Green 26 by peroxidase plus enhancer; conditions: 25° C., pH 9, 30 min
T1 construct: purchased Sigma P4794
T1 sequence (P28313 21-364): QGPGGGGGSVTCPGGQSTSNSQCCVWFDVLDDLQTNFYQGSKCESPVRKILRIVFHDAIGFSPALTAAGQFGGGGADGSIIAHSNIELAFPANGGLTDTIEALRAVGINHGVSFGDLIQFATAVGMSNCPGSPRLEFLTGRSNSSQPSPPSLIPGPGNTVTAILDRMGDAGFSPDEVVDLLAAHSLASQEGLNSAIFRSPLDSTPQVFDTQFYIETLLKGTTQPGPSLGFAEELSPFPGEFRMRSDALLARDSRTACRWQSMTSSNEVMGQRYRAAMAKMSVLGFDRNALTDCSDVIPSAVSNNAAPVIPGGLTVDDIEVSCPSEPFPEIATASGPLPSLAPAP
Method: The oxidation of Direct Green 26 (DG26) is monitored at 610 nm in a spectrophotometer. […] The reaction was carried out for 30 minutes at room temperature. The difference in absorbance between t=0 and t=30 min (Δ Abs in Table) is a measure of the enhancing activity of the system tested.
(§1) Examples 3-7 were repeated using 2-azaPTP, 4-azaPTP and PTP.

[2] = target: T1, Arthromyces ramosus peroxidase; test: Oxidation (bleaching) of Direct Red 80 by peroxidase plus enhancer; conditions: pH 9, 30 min
Method: The reagents are added, using a pipette, in the following order, to a 1-cm cuvette: aqueous carbonate buffer pH 9 (20 mM), DR80 (60 μM), enhancer (various concentrations) and peroxidase enzyme (Arthromyces ramosus peroxidase from Sigma, P4794); 60 units/ml). The reaction was carried out for 30 minutes at room temperature. The difference in absorbance between t=0 and t=30 min (Δ Abs in Table) is a measure of the enhancing activity of the system tested.
as §1

[3] = target: T1, Arthromyces ramosus peroxidase; test: Oxidation (bleaching) of Reactive Black 5 by peroxidase plus enhancer; conditions: for % bleaching / ΔAbs: 590 nm, 25° C., pH 9, 30 min
Method: The oxidation of Reactive Black 5 (RB5) is monitored at 590 nm in a spectrophotometer. […] The reaction was carried out for 30 minutes at room temperature. The difference in absorbance between t=0 and t=30 min (Δ Abs in Table) is a measure of the enhancing activity of the system tested.
ARP [6 u/ml], H2 O2 [250 μM], RB5 [60 μM], Enhancers [100 μM]
as §1

[4] = target: T2, laccase (Polyporus pinsitus) (Trametes villosa, UniProt Q99044); test: Oxidation of Reactive Black 5 by laccase plus enhancer; conditions: for decrease in absorbance after 3 h: 25 C, laccase 30 u/ml, enhancer 67 μM
T2 sequence (Q99044 22-520): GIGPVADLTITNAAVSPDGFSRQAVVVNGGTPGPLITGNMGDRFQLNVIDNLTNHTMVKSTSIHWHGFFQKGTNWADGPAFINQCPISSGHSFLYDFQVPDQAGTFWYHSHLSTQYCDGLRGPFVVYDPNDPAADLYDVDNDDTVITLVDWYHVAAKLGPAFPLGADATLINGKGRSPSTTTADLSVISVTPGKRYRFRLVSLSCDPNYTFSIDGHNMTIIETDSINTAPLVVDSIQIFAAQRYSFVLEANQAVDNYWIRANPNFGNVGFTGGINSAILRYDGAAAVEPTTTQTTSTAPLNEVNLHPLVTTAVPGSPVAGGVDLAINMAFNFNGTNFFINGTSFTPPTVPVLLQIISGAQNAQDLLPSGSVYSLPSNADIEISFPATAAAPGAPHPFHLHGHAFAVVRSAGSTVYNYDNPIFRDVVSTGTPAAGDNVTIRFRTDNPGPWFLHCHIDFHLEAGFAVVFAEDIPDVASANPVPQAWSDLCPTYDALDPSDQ
Method: The laccase activity is measured on a spectrophotometer with 2 mM ABTS in 20 mM sodium phosphate buffer pH 6.0 at 25° C. The oxidation of Reactive Black 5 (RB5) is monitored at 575 nm. The reagents are added, using a pipette, in the following order, to a 1-cm cuvette: aqueous tris buffer pH 9 (20 mM) or sodium phosphate buffer pH 6.0 (20 mM), RB5 (67 μM), enhancer (67 μM), and laccase (Polyporus pinsitus, 30 units/ml). The reaction was carried for 3 hours at room temperature. The difference in absorbance between t=0 and t=3 hours is a measure of the enhancing activity of the system tested. RB5 [575 nm]: 25 C, pH 6.0 and 9.0, 3 h. Laccase [30 u/ml], RB5 [67 μM], Enhancers [67 μM]. The values listed are the decrease in absorbance at […] after 3 h.

[5] = target: T2, laccase (Polyporus pinsitus); test: Oxidation of Direct Green 26 by laccase plus enhancer; conditions: 25° C., laccase 30 u/ml, enhancer 67 μM
Method: The oxidation of Direct Green 26 (DG26) is monitored at 605 nm in a spectrophotometer. The reagents are added, using a pipette, in the following order, to a 1-cm cuvette: aqueous tris buffer pH 9 (20 mM) or sodium phosphate buffer pH 6.0 (20 mM), DG26 (67 μM), enhancer (67 μM), and laccase (Polyporus pinsitus, 30 units/ml). The reaction was carried for 3 hours at room temperature. The difference in absorbance between […] and t=3 h is a measure of the enhancing activity of the system tested. DG26 [605 nm]: 25° C., pH 6.0 and 9.0, 3 h. Laccase [30 u/ml], DG26 [67 μM], Enhancers [67 μM]. The values listed are the decrease in absorbance at 605 nm after 3 h.

[6] = Example 8: DG26, 610 nm, ARP 10 u/ml, H2O2 100 μM, dye 60 μM, enhancer 200 μM
[7] = Example 8: DR80, 530 nm, 25° C., ARP 10 u/ml, H2O2 100 μM, dye 60 μM, enhancer 100 μM
[8] = Example 8: DR80, 530 nm, 25° C., ARP 10 u/ml, H2O2 100 μM, dye 60 μM, enhancer 200 μM
[9] = Example 8: RB5 60 μM, ARP 10 u/ml, H2O2 100 μM, enhancer 200 μM
[10] = DG26 60 μM, 610 nm, ARP 60 u/ml, H2O2 250 μM, enhancer 100 μM
[11] = DR80 60 μM, 500 nm, 25C, ARP 60 u/ml, H2O2 250 μM, enhancer 100 μM
[12] = DR80 60 μM, 500 nm, 25° C., ARP 60 u/ml, H2O2 250 μM, enhancer 10 μM
[13] = DR80 60 μM, 500 nm, 25° C., ARP 60 u/ml, H2O2 250 μM, enhancer 25 μM
[14] = DR80 60 μM, 500 nm, 25° C., ARP 60 u/ml, H2O2 250 μM, enhancer 50 μM
[15] = RB5 60 μM, ARP 6 u/ml, H2O2 250 μM, enhancer 100 μM

% bleaching [1, 6] [%] | % bleaching [2, 7] [%] | % bleaching [2, 8] [%] | % bleaching [3, 9] [%] | % bleaching [1, 10] [%] | ΔAbs [1, 10] | decrease in absorbance after 3 h ([4]; pH 6.0, RB5 67 μM) | decrease in absorbance after 3 h ([4]; pH 9.0, RB5 67 μM) | % bleaching [2, 11] [%] | ΔAbs [2, 11] | % bleaching [2, 12] [%] | ΔAbs [2, 12] | % bleaching [2, 13] [%] | ΔAbs [2, 13] | % bleaching [2, 14] [%] | ΔAbs [2, 14] | decrease in absorbance at 605 nm after 3 h ([5]; pH 6.0, DG26 67 μM) | decrease in absorbance at 605 nm after 3 h ([5]; pH 9.0, DG26 67 μM) | % bleaching [3, 15] [%] | ΔAbs [3, 15] | Compound | further results
31 | 12 | 20 | 63 | – | – | – | – | – | – | – | – | – | – | – | – | – | – | – | – | O=C(O)CCN1c2ccccc2Sc2cnccc21 [Enhancer 2-aza-PTP, 10-(pyrido[3,4-b][1,4]benzothiazyl)propionic acid] | –
43 | 18 | 10 | 64 | 78 | 1.09 | 0.48 | 0.26 | 33 | 0.50 | 60 | 0.98 | 83 | 1.26 | 60 | 0.91 | 0.34 | 0.30 | 76 | 1.01 | O=C(O)CCN1c2ccccc2Sc2cccnc21 [Enhancer 4-aza-PTP, 10-(pyrido[3,2-b][1,4]benzothiazyl)propionic acid] | enhancing capabilities with laccase ([4]; summary of Examples 6-7): excellent enhancing capabilities; enhancing capabilities with peroxidase ([3]; summary of Examples 3-5, especially at lower concentrations (Example 5)): excellent enhancing capabilities
29 | 6 | 2 | 35 | 65 | 0.92 | 0.32 | 0.24 | 48 | 0.78 | 20 | 0.33 | 40 | 0.66 | 50 | 0.82 | 0.14 | 0.37 | 80 | 1.03 | O=C(O)CCN1c2ccccc2Sc2ccccc21 [PTP, reference compound] | –
